From PubChem BioAssay (NCI)
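Abbreviation: GI50, concentration required for 50% inhibition of growth. The concentration for full growth arrest is given as TGI.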

Tests used:
Assay in all cases: inhibition of tumour cell growth, NCI panel, 384-well format
MDA-MB-231 breast = tested on: MDA-MB-231 breast
SF-295 CNS = tested on: SF-295 CNS
TK-10 renal = tested on: TK-10 renal
HL-60(TB) leukemia = tested on: HL-60(TB) leukemia
MCF7 breast = tested on: MCF7 breast
SNB-19 CNS = tested on: SNB-19 CNS
IGROV1 ovarian = tested on: IGROV1 ovarian
NCI-H522 lung = tested on: NCI-H522 lung
HOP-92 NSCLC = tested on: HOP-92 NSCLC
SN12C renal = tested on: SN12C renal
HT29 colon = tested on: HT29 colon
NCI-H226 lung = tested on: NCI-H226 lung
SW-620 colon = tested on: SW-620 colon
T-47D breast = tested on: T-47D breast
UO-31 renal = tested on: UO-31 renal
RPMI-8226 leukemia = tested on: RPMI-8226 leukemia
CCRF-CEM leukemia = tested on: CCRF-CEM leukemia
OVCAR-3 ovarian = tested on: OVCAR-3 ovarian
K-562 leukemia = tested on: K-562 leukemia
OVCAR-5 ovarian = tested on: OVCAR-5 ovarian
SF-539 CNS = tested on: SF-539 CNS
SK-MEL-2 melanoma = tested on: SK-MEL-2 melanoma
LOX IMVI melanoma = tested on: LOX IMVI melanoma
SK-MEL-28 melanoma = tested on: SK-MEL-28 melanoma
CAKI-1 renal = tested on: CAKI-1 renal
MDA-MB-468 breast = tested on: MDA-MB-468 breast
A498 renal = tested on: A498 renal
ACHN renal = tested on: ACHN renal
MDA-MB-435 melanoma = tested on: MDA-MB-435 melanoma
NCI-H23 lung = tested on: NCI-H23 lung
HOP-62 NSCLC = tested on: HOP-62 NSCLC
SK-OV-3 ovarian = tested on: SK-OV-3 ovarian
U251 glioblastoma = tested on: U251 glioblastoma
NCI/ADR-RES ovarian = tested on: NCI/ADR-RES ovarian
SF-268 CNS = tested on: SF-268 CNS
A549 NSCLC = tested on: A549 NSCLC
MALME-3M melanoma = tested on: MALME-3M melanoma
HCT-116 colon = tested on: HCT-116 colon
M14 melanoma = tested on: M14 melanoma
RXF 393 renal = tested on: RXF 393 renal
PC-3 prostate = tested on: PC-3 prostate
MOLT-4 leukemia = tested on: MOLT-4 leukemia
BT-549 breast = tested on: BT-549 breast
UACC-62 melanoma = tested on: UACC-62 melanoma
OVCAR-8 ovarian = tested on: OVCAR-8 ovarian
SNB-75 CNS = tested on: SNB-75 CNS
DU-145 prostate = tested on: DU-145 prostate
KM12 colon = tested on: KM12 colon
786-0 renal = tested on: 786-0 renal
HCT-15 colon = tested on: HCT-15 colon

Structure (SMILES): O=c1[nH]cc(N(CCCl)CCCl)c(=O)[nH]1
- GI50 (MDA-MB-231 breast): 35.1 µM
- GI50 (SF-295 CNS): 8.54 µM
- TGI (SF-295 CNS): 26.4 µM
- GI50 (TK-10 renal): 50 µM
- GI50 (HL-60(TB) leukemia): 1.23 µM
- TGI (HL-60(TB) leukemia): 2.57 µM
- GI50 (MCF7 breast): 18 µM
- GI50 (SNB-19 CNS): 24.6 µM
- GI50 (IGROV1 ovarian): 91.9 µM
- GI50 (NCI-H522 lung): 12.7 µM
- TGI (NCI-H522 lung): 25.6 µM
- GI50 (HOP-92 NSCLC): 19.3 µM
- GI50 (SN12C renal): 4.66 µM
- TGI (SN12C renal): 53.6 µM
- GI50 (HT29 colon): 24.5 µM
- GI50 (NCI-H226 lung): 51.4 µM
- GI50 (SW-620 colon): 8.78 µM
- GI50 (T-47D breast): 30 µM
- GI50 (UO-31 renal): 20.3 µM
- GI50 (RPMI-8226 leukemia): 6.85 µM
- TGI (RPMI-8226 leukemia): 20.3 µM
- GI50 (CCRF-CEM leukemia): 2.21 µM
- TGI (CCRF-CEM leukemia): 4.17 µM
- GI50 (OVCAR-3 ovarian): 23.5 µM
- GI50 (K-562 leukemia): 17.4 µM
- GI50 (OVCAR-5 ovarian): 20.1 µM
- TGI (OVCAR-5 ovarian): 67.4 µM
- GI50 (SF-539 CNS): 7.24 µM
- TGI (SF-539 CNS): 29.8 µM
- GI50 (SK-MEL-2 melanoma): 68 µM
- GI50 (LOX IMVI melanoma): 19.4 µM
- GI50 (SK-MEL-28 melanoma): 65.8 µM
- GI50 (CAKI-1 renal): 4.39 µM
- TGI (CAKI-1 renal): 76.3 µM
- GI50 (MDA-MB-468 breast): 2.73 µM
- TGI (MDA-MB-468 breast): 14.2 µM
- GI50 (A498 renal): 68.9 µM
- GI50 (ACHN renal): 2.88 µM
- TGI (ACHN renal): 8.7 µM
- GI50 (MDA-MB-435 melanoma): 86.4 µM
- GI50 (NCI-H23 lung): 12.3 µM
- TGI (NCI-H23 lung): 57.9 µM
- GI50 (HOP-62 NSCLC): 7.79 µM
- TGI (HOP-62 NSCLC): 31.3 µM
- GI50 (SK-OV-3 ovarian): 28.9 µM
- GI50 (U251 glioblastoma): 10.2 µM
- GI50 (NCI/ADR-RES ovarian): 15.8 µM
- GI50 (SF-268 CNS): 5.68 µM
- TGI (SF-268 CNS): 41.1 µM
- GI50 (A549 NSCLC): 26.8 µM
- GI50 (MALME-3M melanoma): 19.2 µM
- GI50 (HCT-116 colon): 7.54 µM
- GI50 (M14 melanoma): 9.7 µM
- TGI (M14 melanoma): 61.6 µM
- GI50 (RXF 393 renal): 13.2 µM
- TGI (RXF 393 renal): 27.4 µM
- GI50 (PC-3 prostate): 73.1 µM
- GI50 (MOLT-4 leukemia): 0.594 µM
- TGI (MOLT-4 leukemia): 1.87 µM
- GI50 (BT-549 breast): 11.2 µM
- TGI (BT-549 breast): 46.8 µM
- GI50 (UACC-62 melanoma): 6.43 µM
- GI50 (OVCAR-8 ovarian): 9.13 µM
- GI50 (SNB-75 CNS): 29.1 µM
- GI50 (DU-145 prostate): 14.1 µM
- TGI (DU-145 prostate): 42.1 µM
- GI50 (KM12 colon): 98.9 µM
- GI50 ([…]-0 renal): 16.8 µM
- GI50 (HCT-15 colon): 7.48 µM
